These results are taken from patent US12163955B2, “Antibodies to methotrexate and uses thereof” (Ark Diagnostics, Inc., priority 2023, dated 2024).

Data set [1] is described as follows: MTX Assay calibration curve (homogeneous enzyme immunoassay, Beckman AU680). In kind it is biochemical. As for the experimental part:
The top clones (281H3/28K1, 321H1/32K2 and 64H1/64K1) were selected based on performance for larger scale production and purification (Table 5). These clones were then used for further studies. To make the initial antibody reagent, both clones were diluted to 100 μg/mL with antibody diluent. Then a 1:4 ratio mixture of […] to Clone 64H1/64K1 was made and spiked into antibody diluent. […]
The MTX Assay calibration range is from 0.00 to 1.30 μM. Calibration curves were generated on the Beckman AU680 by assaying each calibrator level in quadruplicate. The Beckman AU680 analyzer performs the nonlinear data analysis automatically using multi-parameter curve-fit math model. Typical calibrator separations are shown for the MTX Assay in Table 6. […] The calculation for feasibility lot percent modulation is shown below: • Max Rate=640.3 mA/min. • Negative Calibrator Rate=358.5 mA/min. • High Calibrator Rate (1.30 μM)=608.7 mA/min. • Total Curve ΔmA=High Cal. Rate−Negative Cal.

For data set [2] the following is noted: cited from earlier work.
For data set [3] the following is noted: single dose; within 15 minutes; cited from earlier work.

Where only a bound is given, the exact number is not on record here.

On to `CN(Cc1cnc2nc(N)nc(N)c2n1)c1ccc(C(=O)N[C@@H](CCC(=O)O)C(=O)O)cc1` [MTX, (2S)-2-[[4-[(2,4-diaminopteridin-6-yl)methyl-methylamino]benzoyl]amino]pentanedioic acid], for which the Calibration curve separation is recorded as 21.5 mA/min in data set [1] (0.00-0.05 μM); 250.2 mA/min in data set [1] (0.00-1.30 μM); 44.9 mA/min in data set [1] (0.05-0.15 μM); 79.7 mA/min in data set [1] (0.15-0.35 μM); 61.0 mA/min in data set [1] (0.35-0.65 μM); 43.1 mA/min in data set [1] (0.65-1.30 μM). The Calibrator rate in data set [1] (Calibrator Conc. 0.00 μM) was determined as 358.5 mA/min; in data set [1] (Calibrator Conc. 0.05 μM) it was 380.0 mA/min; in data set [1] (Calibrator Conc. 0.15 μM), 424.8 mA/min; in data set [1] (Calibrator Conc. 0.35 μM) it was 504.6 mA/min; in data set [1] (Calibrator Conc. 0.65 μM), 565.6 mA/min; in data set [1] (Calibrator Conc. 1.30 μM) it was 608.7 mA/min. In addition, the “MTX serum concentration reached” value in data set [2] (following a 4-hour infusion, pediatric patients with osteosarcoma) is listed as “up to 3100 μmol/L”. Moreover, the MTX serum concentration result in data set [2] (high dose therapy for osteosarcoma) is given as “exceed 1000 μmol/L”. In addition, the “MTX decay curve level” value in data set [2] (osteosarcoma, 72 hours) is “less than 0.3 μmol/L”.

B1: glucarpidase: antidote that converts MTX into DAMPA and glutamate (protein, UniProt P06621 23-415, looked up)
Carboxypeptidase G2: ALAQKRDNVLFQAATDEQPAVIKTLEKLVNIETGTGDAEGIAAAGNFLEAELKNLGFTVTRSKSAGLVVGDNIVGKIKGRGGKNLLLMSHMDTVYLKGILAKAPFRVEGDKAYGPGIADDKGGNAVILHTLKLLKEYGVRDYGTITVLFNTDEEKGSFGSRDLIQEEAKLADYVLSFEPTSAGDEKLSLGTSGIAYVQVNITGKASHAGAAPELGVNALVEASDLVLRTMNIDDKAKNLRFNWTIAKAGNVSNIIPASATLNADVRYARNEDFDAAMKTLEERAQQKKLPEADVKVIVTRGRPAFNAGEGGKKLVDKAVAYYKEAGGTLGVEERTGGGTDAAYAALSGKPVIESLGLPGFGYHSDKAEYVDISAIPRRLYMAARLIMDLGAGK
For the molecule B1, the “reduction of plasma MTX concentrations” value in data set [3] is no less than 97%.
